From ChEMBL document CHEMBL1201862, “PubChem BioAssay data set” (2004)
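Growth conditions: 96-well plates. Treatment: test compound, 48 hours, 5 concentrations. Analysis: linear interpolation between bracketing concentrations; unreached endpoints set to highest concentration. The concentration for 50% growth inhibition is given as GI50.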 Activity calls are given as the source filed them. No stated cut-off is given here; in the data, active = GI50 up to about 1.1 µM and inactive = higher.

What was measured:
Assay in all cases: NCI tumour cell line growth inhibition, 48 h
BT-549 = tested on: BT-549
M14 = tested on: M14
SF-295 = tested on: SF-295
OVCAR-5 = tested on: OVCAR-5
NCI-H226 = tested on: NCI-H226
HT-29 = tested on: HT-29
SK-MEL-5 = tested on: SK-MEL-5
HOP-62 = tested on: HOP-62
MCF7 = tested on: MCF7
HOP-92 = tested on: HOP-92
SNB-75 = tested on: SNB-75
KM12 = tested on: KM12
SN12C = tested on: SN12C
HL-60 = tested on: HL-60
EKVX = tested on: EKVX
Malme-3M = tested on: Malme-3M
U-251 = tested on: U-251
UO-31 = tested on: UO-31
A498 = tested on: A498

SMILES	GI50 (BT-549)	GI50 (M14)	GI50 (SF-295)	GI50 (OVCAR-5)	GI50 (NCI-H226)	GI50 (HT-29)	GI50 (SK-MEL-5)	GI50 (HOP-62)	GI50 (MCF7)	GI50 (HOP-92)	GI50 (SNB-75)	GI50 (KM12)	GI50 (SN12C)	GI50 (HL-60)	GI50 (EKVX)	GI50 (Malme-3M)	GI50 (U-251)	GI50 (UO-31)	GI50 (A498)
Cc1nc2c(n1CCCl)C(=O)c1ccccc1C2=O	20.1 µM (inactive)	4.68 µM (inactive)	21.4 µM (inactive)	19 µM (inactive)	18.7 µM (inactive)	15.8 µM (inactive)	> 10 µM (inactive)	19.5 µM (inactive)	18.9 µM (inactive)	29.2 µM (inactive)	14.5 µM (inactive)	25.3 µM (inactive)	30.3 µM (inactive)	16.3 µM (inactive)	53.8 µM (inactive)	5.82 µM (inactive)	12.6 µM (inactive)		
C=C(Nc1nc2ccc(C)cc2s1)C(=O)C(CC)C(=O)C(CC)CC1C(=O)NC(=O)NC1=O (centres undefined)	> 100 µM (inactive)	> 100 µM (inactive)	> 100 µM (inactive)	> 100 µM (inactive)	> 100 µM (inactive)		> 100 µM (inactive)	32 µM (inactive)	> 100 µM (inactive)	> 100 µM (inactive)	> 100 µM (inactive)	> 100 µM (inactive)	> 100 µM (inactive)	> 100 µM (inactive)	> 100 µM (inactive)		> 100 µM (inactive)	> 100 µM (inactive)	
CC(=O)N(O)c1ccc(-c2nc3ccccc3s2)cc1		85.7 µM (inactive)	45.2 µM (inactive)	> 100 µM (inactive)	24.2 µM (inactive)	46.6 µM (inactive)	39.2 µM (inactive)	42.1 µM (inactive)		64.4 µM (inactive)	33 µM (inactive)	38.2 µM (inactive)	> 100 µM (inactive)			31.3 µM (inactive)	87.9 µM (inactive)	46 µM (inactive)	35.6 µM (inactive)
CN/N=C(/C=C/c1ccccc1)C(C)C	> 100 µM (inactive)	> 100 µM (inactive)	> 100 µM (inactive)	> 100 µM (inactive)	> 100 µM (inactive)	> 100 µM (inactive)	> 100 µM (inactive)	> 100 µM (inactive)	> 100 µM (inactive)		> 100 µM (inactive)	> 100 µM (inactive)	> 100 µM (inactive)	> 100 µM (inactive)	> 100 µM (inactive)	> 100 µM (inactive)	> 100 µM (inactive)	> 100 µM (inactive)	
CCOC(=O)c1c(C)n(Cc2ccccc2)c2c1cc(O)c1[nH]c3c(c12)CCCC3	11.7 µM (inactive)	6.52 µM (inactive)	3.37 µM (inactive)	7.08 µM (inactive)		13.4 µM (inactive)	3.98 µM (inactive)	11.7 µM (inactive)	2.36 µM (inactive)	< 0.01 µM (active)		3.17 µM (inactive)	5.47 µM (inactive)	2.41 µM (inactive)	2.69 µM (inactive)	3.79 µM (inactive)	1.81 µM (inactive)	2.58 µM (inactive)	
COc1cc(/N=N/N(C)C)c(C(C)c2c3cc(OC)c(OC)cc3cc[n+]2C)cc1OC (centres undefined)	46.9 µM (inactive)	86.3 µM (inactive)	> 100 µM (inactive)	> 100 µM (inactive)	78.5 µM (inactive)	35.4 µM (inactive)	21.4 µM (inactive)	49.7 µM (inactive)	33.4 µM (inactive)		31.6 µM (inactive)	14.3 µM (inactive)	40.5 µM (inactive)		> 100 µM (inactive)	34.4 µM (inactive)	38.6 µM (inactive)	> 100 µM (inactive)	> 100 µM (inactive)
NNC(=O)COc1nc(-c2cccs2)nc2ccc(I)cc12	15.3 µM (inactive)	23.1 µM (inactive)	28.8 µM (inactive)	28.4 µM (inactive)	19.9 µM (inactive)	34.4 µM (inactive)	20.1 µM (inactive)	27.3 µM (inactive)	15.8 µM (inactive)	18 µM (inactive)	22.7 µM (inactive)	17.1 µM (inactive)	23.1 µM (inactive)		18.9 µM (inactive)	17 µM (inactive)	18.7 µM (inactive)	21.1 µM (inactive)	
CCc1ccc(/C(C)=N/NC(N)=S)cc1		> 100 µM (inactive)	> 100 µM (inactive)	13.1 µM (inactive)		90.4 µM (inactive)	78.2 µM (inactive)	> 100 µM (inactive)		> 100 µM (inactive)		> 100 µM (inactive)			> 100 µM (inactive)	25.8 µM (inactive)	> 100 µM (inactive)	> 100 µM (inactive)	
CN(N)/N=N/c1[nH]cnc1[N+](=O)[O-]	> 100 µM (inactive)	> 100 µM (inactive)	> 100 µM (inactive)	> 100 µM (inactive)	> 100 µM (inactive)	> 100 µM (inactive)	> 100 µM (inactive)	> 100 µM (inactive)			> 100 µM (inactive)	> 100 µM (inactive)	31.8 µM (inactive)	2.99 µM (inactive)	94.8 µM (inactive)	> 100 µM (inactive)	> 100 µM (inactive)	61.1 µM (inactive)	> 100 µM (inactive)
